Reference: patent publication US4108987A, “Cyclic hexapeptides” (Merck & Co., Inc., priority 1977, dated 1978)
Square brackets hold non-standard residues; d marks the D form. Peptide text beside a SMILES is read from it.

Tested on: rumen fluid which contained methane-producing bacteria and other rumen bacteria
Test: In vitro rumen fermentation test
Assay type: cell-based
Procedure: Rumen fluid which contained methane-producing bacteria and other rumen bacteria was produced in a fermentor which was set up and maintained to simulate the conditions of a rumen.
The test was carried out in a screw-cap tube which was sealed with a butyl rubber stopper. […] The air in the tube was replaced with a gas mixture of 97% nitrogen-3% hydrogen made free of oxygen by passage through a catalytic purifier. After incubation for 18 hours in a water bath shaker at 39° C., 0.5 ml. of the gas was removed through the stopper into the sample loop of a Fisher Gas Partitioner. The gas sample was partitioned, and the methane produced was compared to a standard gas mixture containing a known amount of methane. The incubation mixture was acidified with 4 ml. of 10% metaphosphoric acid and centrifuged. One μl. of the supernate was analyzed by gas-liquid chromatography. The volatile fatty acids were compared to a standard volatile fatty acid mixture containing known amounts of acetic, propionic, butyric and valeric acids. Appropriate controls were included.

## O=C1N[C@H](Cc2ccccc2)C(=O)N2CCC[C@H]2C(=O)N[C@H](Cc2ccccc2)C(=O)N2CCC[C@H]2C(=O)N[C@H](Cc2ccccc2)C(=O)N2CCC[C@@H]12 [cyclo(Pro-D-Phe)3, Cyclo(Pro-D-Phe)3] (cyclo(P[dF]P[dF]P[dF]))
250 μg./ml. of tested compound, incubation 18 hours at 39° C., gas partitioner
  CH4 (methane) produced: essentially eliminated
250 μg./ml. of tested compound, incubation 18 hours at 39° C., gas-liquid chromatography
  shift in VFA ratios: significant shift in VFA ratios favoring the longer chain acids
Treated 16 μg./ml., control 1.8
  Valeric acid, μmols: 4.5 μmols
Treated 16 μg./ml., control 3.0
  Valeric acid, μmols %: 7.0 μmols %
Treated 16 μg./ml., control 7.1
  Butyric acid, μmols: 15.3 μmols
Treated 16 μg./ml., control 10.5
  Butyric acid, μmols %: 25.0 μmols %
Treated 16 μg./ml., control 19.5
  Propionic acid, μmols: 23.0 μmols
Treated 16 μg./ml., control 28.5
  Propionic acid, μmols %: 37.0 μmols %
Treated 16 μg./ml., control 39.9
  Acetic acid, μmols: 18.8 μmols
Treated 16 μg./ml., control 58.5
  Acetic acid, μmols %: 31.0 μmols %
Treated 16 μg./ml., control 68.3
  Total volatile fatty acids, μmols: 61.6 μmols
In vitro rumen fermentation
  production of VFAs (summary of tabulated data): effective in increasing the production of the VFAs, propionic, butyric and valeric at the expense of methane and acetate
